“And” between values parts separate entries of the source, which are not always exact repeats. Equal values may be shown once. “Also recorded” adds a separate entry of the source. Marks after values point to notes of the source that are not given here.
Tests used:
[1] = tested on: advanced NSCLC; conditions: in vivo
[2] = tested on: advanced NSCLC (aNSCLC) with PD-L1 ≥50%; assay: EMPOWER-Lung 1 phase 3 study, cemiplimab monotherapy vs platinum-doublet chemotherapy, OS and PFS; format: in vivo, human; conditions: cemiplimab monotherapy versus platinum-doublet chemotherapy
Excerpt: Additional objectives include further characterization of tumor responses, patient-reported outcomes, safety, and pharmacokinetics (PK). Objectives: […] Progression-free survival, the time to tumor progression (based on Response Evaluation Criteria in Solid Tumors version 1.1 [RECIST 1.1] criteria [Eisenhauer) 2009]) or death, was chosen as a primary endpoint because PFS is recognized as a marker of clinical benefit. […] Disease progression will be determined based on the RECIST 1.1 criteria (Eisenhauer 2009). […] A secondary objective of the study includes comparing the ORR of cemiplimab versus platinum-based chemotherapies. Primary Endpoints: The primary endpoints are OS and PFS (per RECIST 1.1, Eisenhauer 2009). Overall survival is defined as the time from randomization to the date of death. A patient who has not died is censored at the last known date of contact. Progression-free survival is defined as the time from randomization to the date of the first documented tumor progression or death due to any cause. Patients are censored according to the following rules: […] Study Design: […] […] Safety is assessed through the occurrence of TEAEs, vital sign evaluation, physical examination, and laboratory analyses. […] […]

[3] = tested on: locally advanced NSCLC (laNSCLC) with PD-L1 ≥50%; assay: EMPOWER-Lung 1 subgroup analysis: patients with locally advanced NSCLC; format: in vivo, human
Excerpt: Methods: […] Patients with locally advanced non-small cell lung cancer ([…]) were those with Stage IIIB/IIIC disease who were not candidates for definitive concurrent chemoradiotherapy. Study Design: Key eligibility criteria included: (i) treatment-naïve advanced NSCLC; […] (iii) no EGFR, ALK, or ROS1 mutations; […] Stratification factors included: histology (squamous vs non-squamous) and region (Europe, Asia, or ROW). Primary endpoints: OS and PFS. Secondary endpoints: ORR (key), DOR, HRQoL, and safety. The patients had locally advanced NSCLC, including those with Stage IIIB/IIIC disease who were not candidates for treatment with definitive concurrent chemoradiotherapy or had recurred after initial treatment with concurrent chemoradiotherapy.

[4] = tested on: advanced NSCLC with PD-L1 ≥50% and brain metastases; assay: EMPOWER-Lung 1 phase 3 subgroup analysis: clinical outcomes in patients with treated stable brain metastases; format: in vivo, human
Excerpt: Primary Endpoints: The primary endpoints are OS and PFS (per RECIST 1.1, Eisenhauer 2009). Overall survival is defined as the time from randomization to the date of death. A patient who has not died is censored at the last known date of contact. Progression-free survival is defined as the time from randomization to the date of the first documented tumor progression or death due to any cause. Patients are censored according to the following rules: […] Secondary Endpoints: A key secondary endpoint in the study is ORR. Objective response rate is defined as the number of patients with a best overall response (BOR) of confirmed CR or PR divided by the number of patients in the efficacy analysis set. Best overall response is defined as the best overall response (per RECIST 1.1) between the date of randomization and the date of the first objectively documented progression or the date of subsequent anti-cancer therapy, whichever comes first. Other secondary endpoints include DOR and QOL. Duration of response is defined as the time between the date of first response (CR or PR) to the date of the first documented tumor progression (per RECIST 1.1) or death due to any cause. Quality of life is measured by EORTC QLQ-C30 and […]. Further secondary endpoints also include the safety and tolerability of cemiplimab. To evaluate the safety and tolerability of cemiplimab versus platinum-based chemotherapies, safety and tolerability are measured by the incidence of AEs, serious adverse events (SAEs), deaths, and laboratory abnormalities to assess immunogenicity (ADA/Nabs) to cemiplimab and any relationship with drug concentrations, efficacy and safety. Methods: The design of this study is illustrated in FIG. 1. […] Tumor response to therapy was assessed according to RECIST 1.1, measured by CT or MRI. […] All patients received local therapy and needed to be neurologically stable before joining the trial. In patients with a known history of treated brain metastases at baseline, CT or MRI of the brain with contrast (unless contraindicated) was performed at screening (except if performed within 60 days prior to screening). Additional sites of known disease (including CNS) were also imaged at screening. During the treatment and follow-up period, surveillance imaging of the brain was performed every 18 weeks for year 1, and every 24 weeks for year 2, or sooner if clinically indicated.

[5] = tested on: advanced NSCLC with PD-L1 ≥50%; assay: EMPOWER-Lung 1 patient-reported symptoms, functioning and QoL (EORTC QLQ-C30/QLQ-LC13), ITT population; format: in vivo, human; conditions: for Definitive deterioration on key symptoms (dyspnea, cough, pain in chest, pain in other body parts, fatigue, nausea/vomiting, appetite loss, constipation, diarrhea): all P<0.05
Excerpt: Methods: EMPOWER-Lung 1 was a multicenter, open-label, randomized, controlled, Phase III, pivotal clinical trial of cemiplimab in adults (≥18 years) with: […] (ii) ECOG performance status ≤1; (iii) adequate organ and bone marrow function; and (iv) adequately treated clinically stable brain metastases (historically underrepresented in clinical trials) were allowed to enroll. […] In the intent-to-treat population, mixed-effects repeated measures models (mixed-model repeat measures, MMRM) were used to estimate least squares (LS) mean change from BL on all scales. Follow-up assessment was conducted 14 to 30 days after the last study treatment administration if a patient discontinued, or 14 to 30 days (±7 days) after the last cycle visit if the patient completed treatment. […] Scores range from 0 to 100; high scores on functional domains and low scores on symptoms reflect better outcomes. The QLQ-LC13 is a patient-reported outcome measure that assesses lung cancer disease- and treatment-specific symptoms during the past week. Scores range from 0 to 100; higher scores reflect higher symptom levels. […] MMRM analysis was used to estimate LS mean change from baseline on all scales among patients with a baseline and at least one post-baseline score. […] Hazard ratios (HRs) with 95% confidence intervals (95% CIs) were derived from the survival analyses to determine the likelihood of definitive deterioration. Analyses were based on the intention-to-treat (ITT) population consisting of all randomized patients.

[6] = tested on: advanced NSCLC with PD-L1 ≥50% and clinically stable treated brain metastases; assay: EMPOWER-Lung 1 post-hoc patient reported outcomes (EORTC QLQ-C30/QLQ-LC13) in brain metastases subgroup; format: in vivo, human
Description: Patient Reported Outcomes (PROs): Post-hoc exploratory analyses were conducted to evaluate PROs in this subgroup of aNSCLC patients with PD-L1 ≥50% and clinically stable treated brain metastases at baseline. PROs were assessed at baseline and day 1 of each treatment cycle for the first 6 cycles, and then on day 1 of every third cycle using EORTC QLQ-C30 and QLQ-LC13 questionnaires. Higher scores indicate better functioning, global health status (GHS)/quality of life (QoL), or worse symptom severity. Mixed model for repeated measures analyses were performed to compare overall change from baseline scores between the two treatment arms, while controlling for baseline characteristics. The baseline PRO scores of the cemiplimab arm were broadly similar with the chemotherapy arm.

[7] = cemiplimab n=45, chemotherapy n=42
[8] = cemiplimab n=45, chemotherapy n=42, listed as cemiplimab
[9] = after baseline, brain metastases subgroup, n=34 per arm
[10] = brain metastases subgroup, n=34 per arm
[11] = brain metastases subgroup, cemiplimab vs chemotherapy
[12] = Cemiplimab minus chemo, QLQ-C30, ITT
[13] = cemiplimab vs chemotherapy, ITT

cemiplimab
Patients with ≥1 PRBC transfusions, % [1]: 1.1% | Patients with ≥1 platelet transfusions, % [1]: 0.3% | SAE-associated hospitalization rate [1]: 33.2 per 100 patient-years | Overall survival hazard ratio [2]: 0.57 | Progression-free survival hazard ratio [2]: 0.54 | 12-month OS ([3]; FIG. 9): 78.5% | 12-month PFS ([3]; FIG. 10): 38.5% | Best overall response: CR, % [3, 7]: (2.2) % | Best overall response: Non-evaluable, % [3, 7]: (17.8) % | Best overall response: PD, % [3, 7]: (15.6) % | Best overall response: Partial response, % [3, 7]: (42.2) % | Best overall response: Stable disease, % [3, 7]: (22.2) % | ORR, % [3, 7]: (44.4) % | PFS, median [3, 7]: 8.4 months | ORR, % [3, 8]: 44% and 44.4% | OS, median [3, 8]: not yet reached | ORR odds ratio (95% CI) ([3]; cemiplimab vs chemotherapy): 1.8 (0.7-4.2); *P = 0.20 | OS HR (95% CI) ([3]; cemiplimab vs chemotherapy): 0.5 (0.2-1.1); P = 0.0875 | PFS HR (95% CI) ([3]; cemiplimab vs chemotherapy): 0.5 (0.3-0.9); P = 0.0153 | Reduction in the risk of disease progression ([3]; cemiplimab vs chemotherapy): 51% | PFS HR (95% CI) ([3]; cemiplimab vs chemotherapy, listed as cemiplimab): 0.49 | KM estimated DOR, median ([3]; responders: cemiplimab n=20, chemotherapy n=13): 12.5 months | CNS intracranial disease progression, % of patients [4, 9]: 5.9% | CNS intracranial disease progression, patients [4, 9]: two | Best overall tumor response: Complete response, % [4, 10]: (8.8) % | Best overall tumor response: Non-evaluable, % [4, 10]: (11.8) % | Best overall tumor response: Partial response, % [4, 10]: (32.4) % | Best overall tumor response: Progressive disease, % [4, 10]: (20.6) % | Best overall tumor response: Stable disease, % [4, 10]: (26.5) % | Extra-CNS disease progression, % of patients [4, 10]: 26.5% | Extra-CNS disease progression, patients [4, 10]: 9 patients | Intracranial disease progression due to a new tumor, % of patients [4, 10]: 2.9% | Intracranial disease progression due to a new tumor, patients [4, 10]: one | Intracranial disease progression due to an existing tumor, % of patients [4, 10]: 5.9% | Intracranial disease progression due to an existing tumor, patients [4, 10]: two | ORR [4, 10]: 41.2% | OS, median ([4]; brain metastases subgroup, n=34 per arm, cemiplimab 350 mg IV Q3W or investigator's choice chemotherapy): 18.7 months | ORR ([4]; brain metastases subgroup, n=34 per arm, listed as cemiplimab): 41.2% | PFS, median ([4]; brain metastases subgroup, n=34 per arm, per independent review committee): 10.4 months | ORR odds ratio (95% CI) [4, 11]: 6.9 (1.7-27.8); P = 0.0034* | OS HR (95% CI) [4, 11]: 0.17 (0.04-0.76); P = 0.0091 | PFS HR (95% CI) [4, 11]: 0.45 (0.22-0.92); P = 0.0231 | Median KM estimation of brain metastasis PFS ([4]; cemiplimab versus chemotherapy, FIG. 4): superior | Difference in LS mean change from BL (95% CI): Cognitive functioning [5, 12]: 2.5 (0.4-4.5)* | Difference in LS mean change from BL (95% CI): Emotional functioning [5, 12]: 3.4 (1.0-5.9)* | Difference in LS mean change from BL (95% CI): GHS/QoL [5, 12]: 5.4 (2.7-8.1)* | Difference in LS mean change from BL (95% CI): Physical functioning [5, 12]: 4.2 (1.6-6.7)* | Difference in LS mean change from BL (95% CI): Role functioning [5, 12]: 3.3 (0.2-6.3)* | Difference in LS mean change from BL (95% CI): Social functioning [5, 12]: 5.2 (2.5-7.9)* | LS mean change (SE) from baseline in GHS/QOL across all timepoints ([5]; MMRM analysis, EORTC QLQ-C30, C2 to C15): 7.1 (1.0) | Definitive deterioration on key symptoms (dyspnea, cough, pain in chest, pain in other body parts, fatigue, nausea/vomiting, appetite loss, constipation, diarrhea) ([5]; cemiplimab versus chemotherapy): lower likelihood of definitive deterioration | Definitive deterioration on key symptoms (dyspnea, cough, pain in chest, pain in other body parts, fatigue, nausea/vomiting, appetite loss, constipation, diarrhea) ([5]; cemiplimab versus chemotherapy, listed as cemiplimab): significantly lower risk of definitive deterioration | Definitive deterioration of treatment-related symptoms of peripheral neuropathy and alopecia ([5]; cemiplimab versus chemotherapy, both P<0.05): lower likelihood of definitive deterioration; also recorded: lower risk of definitive deterioration | HR (95% CI) for definitive deterioration: Cognitive functioning [5, 13]: 0.64 (0.44-0.93)* | HR (95% CI) for definitive deterioration: Emotional functioning [5, 13]: 0.49 (0.30-0.79)* | HR (95% CI) for definitive deterioration: GHS/QoL [5, 13]: 0.73 (0.52-1.03) | HR (95% CI) for definitive deterioration: Physical functioning [5, 13]: 0.59 (0.42-0.84)* | HR (95% CI) for definitive deterioration: Role functioning [5, 13]: 0.65 (0.46-0.92)* | HR (95% CI) for definitive deterioration: Social functioning [5, 13]: 0.50 (0.35-0.72)* | Difference in overall change from baseline in appetite loss ([6]; cemiplimab versus chemotherapy): −7.43 | Difference in overall change from baseline in emotional functioning ([6]; cemiplimab versus chemotherapy): 7.27 | Difference in overall change from baseline in role functioning ([6]; cemiplimab versus chemotherapy): 8.59 | Difference in overall change from baseline in symptoms of fatigue ([6]; cemiplimab versus chemotherapy): −8.19 | Overall change from baseline in GHS/QOL, difference cemiplimab versus chemotherapy ([6]; mixed model for repeated measures): 9.35

— patent US20250270321A1, “METHODS OF TREATING LUNG CANCER BY ADMINISTERING A PD-1 INHIBITOR” (priority 2021, published 2025)
